What was measured:
[1] = tested on: YAP/TEAD reporter in BxPC-3 cells; assay: TEAD-driven luciferase reporter assay, BxPC-3; format: cell-based, human; conditions: 16 h
Procedure: (§1) CHO-K1 cells or pancreatic cancer cell lines were transfected with a cAMP responsive element (CRE) reporter or TEAD reporter using lipofectamine 2000 according to the manufacturer’s manual. […] Then, cells were lysed and luciferase activities were determined using Dual-Luciferase Reporter Assay Kit (Promega, Madison, WI, USA).

Pan02 cells [2] = assay: Wound healing assay, Pan02; format: cell-based, murine; conditions: 0.1 μM PGE2, 24 h, dose-dependent
Procedure: The wound healing assay was performed according to a standard protocol as described before. Briefly, Pan02 and BxPC-3 cells were grown as a confluent monolayer in 12-well plates (Corning, Corning, NY, USA) overnight and starved with serum-free medium for 6 h. The monolayer cells were disrupted with a P100 micropipette tip (JET BIOFIL, Guangzhou, China) and rinsed with PBS to remove detached cells. Medium containing different concentrations of compounds was added subsequently. After 24 h, treated cells were stained with 2 μM calcein-AM (Yeasen, Shanghai, China) for 20 min and washed with PBS. Photos were taken of the area in the scraped zone of each dish at 100× magnification by using an inverted fluorescent microscope (OLYMPUS, Tokyo, Japan).

[3] = tested on: YAP/TEAD reporter in Pan02 cells; assay: TEAD-driven luciferase reporter assay, Pan02; format: cell-based, murine; conditions: 16 h
Procedure: as §1

[4] = Body weight of mice in Pan02-Luc metastasis model; format: in vivo, C57BL/6 mice; conditions: L001 75 mg/kg p.o. daily; gemcitabine 25 mg/kg i.p. twice a week; n = 6
Procedure: Male C57/BL6 mice (6–8 weeks) were obtained from the National Rodent Laboratory Animal Resources (NRLAR, Shanghai, China). All mice were housed according to Institutional Animal Care and Use Committee guidelines and under a protocol approved by East China Normal University Ethics Committee with respect to animal care and welfare assurance. The bioluminescent liver metastasis mouse model was established as described previously. In brief, 2 × 10^6 Pan02/luc cells suspended in 50 μL of PBS were injected into mice spleen. […] Tumor metastasis was monitored by using an in vivo imaging system following intraperitoneal injection with D-Luciferin (2 mg per mouse; Promega). Bioluminescence intensity was recorded every seven days by a Xenogen IVIS-200 Optical in vivo imaging system (PerkinElmer; Waltham, MA, USA) for up to 4 weeks. The mouse body weight was measured every other day. Survival curve analysis was performed using GraphPad Prism 7.

Pan02 cells [5] = assay: Cell viability assay (MTS), Pan02; format: cell-based, murine; conditions: 72 h
Procedure: Cells were seeded into 96-well plates and treated with varied concentrations of compounds for 72 hrs. Cell viabilities were determined by using MTS reagent (Promega, Madison, WI, USA) according to the manufacturer’s manual. Spectrophotometric absorbance at 490 nm was measured by Flexstation® 3 Multi-Mode Microplate Reader (Molecular Devices, San Jose, CA, USA). The experiments were independently repeated three times.

In the case of `C[C@H](NC(=O)c1c(Cc2cccc(C(F)(F)F)c2)sc2c1CCOC2)c1ccc(C(=O)O)cc1` [L001], the “PGE2-driven YAP/TEAD reporter activity” value [1] was “remarkably suppressed”, the PGE2-triggered wound closure (Pan02 cells [2]) was “significantly blocked” and the “PGE2-driven YAP/TEAD reporter activity” value [3] was “remarkably suppressed”. The body weight loss [4] was “barely found” and the cell viability (Pan02 cells [5]) was “did not affect the cell viabilities”.

Source: publication PMC8879074, “A Novel Small Molecular Prostaglandin Receptor EP4 Antagonist, L001, Suppresses Pancreatic Cancer Metastasis” (Molecules, 2022)
